According to patent publication US20190203212A1, “INDUCIBLE DNA BINDING PROTEINS AND GENOME PERTURBATION TOOLS AND APPLICATIONS THEREOF” (Massachusetts Institute of Technology, priority 2013, published 2019):

System: Grm2
Assay: AAV-delivered TALE / LITE modulation of Grm2 mRNA in primary cortical neurons, qRT-PCR
Assay type: cell-based, mouse
Details: neurons expressing only one LITE component
Protocol: FIG. 18 depicts metabotropic glutamate receptor 2 (mGlur2) LITE activity in mouse cortical neuron culture. A mGluR2 targeting LITE was constructed via the plasmids pAAV-human Synapsin I promoter (hSyn)-HA-TALE(mGluR2)-CIB1 and pAAV-hSyn-CRY2PHR-VP64-2A-GFP. These fusion constructs were then packaged into adeno associated viral vectors (AAV). Additionally, AAV carrying hSyn-TALE-VP64-2A-GFP and GFP only were produced. Embryonic mouse (E16) cortical cultures were plated on Poly-L-lysine coated 24 well plates. After 5 days in vitro neural cultures were co-transduced with a mixture of TALE(mGluR2)-CIB1 and CRY2PHR-VP64 AAV stocks. Control samples were transduced with either TALE(mGluR2)-VP64 AAV or GFP AAV. 6 days after AAV transduction, experimental samples were stimulated using either of two light pulsing paradigms: 0.5 s per min and 0.25 sec per 30 sec. Neurons were stimulated for 24 h and harvested for qPCR analysis. All mGluR2 expression levels were normalized to the respective stimulated GFP control. […]
Light stimulation was started 6 days after AAV transduction (DIV 11) with an intensity of 5 mW/cm^2, duty cycle of 0.8% (250 ms pulses at 0.033 Hz or 500 ms pulses at 0.016 Hz), 466 nm blue light for 24 h unless indicated otherwise in figure legends. […] Relative mRNA levels were measured by quantitative real-time PCR (qRT-PCR) using TaqMan probes as described above for Neuro 2a cells. […]

Q: With “CRY2PHR-VP64: LITE effector component alone” as the substance, how does the “Grm2 mRNA versus GFP controls, single LITE component” value read?
A: did not significantly affect transcription
